In ChEMBL document CHEMBL1201862, “PubChem BioAssay data set” (2004):
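In this assay, cells in 96-well plates receive the compound at five concentrations for 48 hours. Endpoints are linearly interpolated between the surrounding concentrations. The concentration for 50% growth inhibition is given as GI50.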 Active and inactive are the calls of the source. No stated cut-off is given here; in the data, active = GI50 up to about 1.1 µM and inactive = higher.

Legend:
Experiment in all cases: NCI tumour cell line growth inhibition, 48 h
[1] = tested on: OVCAR-4
[2] = tested on: SK-MEL-5
[3] = tested on: NCI/ADR-RES
[4] = tested on: DU-145
[5] = tested on: SK-MEL-28
[6] = tested on: EKVX
[7] = tested on: 786-0
[8] = tested on: SF-268
[9] = tested on: MOLT-4
[10] = tested on: HCT-116
[11] = tested on: SNB-19
[12] = tested on: SNB-75
[13] = tested on: UACC-62
[14] = tested on: KM12
[15] = tested on: HOP-92
[16] = tested on: NCI-H226
[17] = tested on: T47D
[18] = tested on: CAKI-1
[19] = tested on: SK-MEL-2

SMILES: O=C(O)[C@H]1[C@@H](C2CCCCC2)O[C@@H](C2CCCCC2)O[C@H]1C(F)(F)F
- GI50 [1]: 36.2 µM (inactive)
- GI50 [2]: 20.7 µM (inactive)
- GI50 [3]: 40.6 µM (inactive)
- GI50 [4]: 41.8 µM (inactive)
- GI50 [5]: 19.4 µM (inactive)
- GI50 [6]: 21.4 µM (inactive)
- GI50 [7]: 17.8 µM (inactive)
- GI50 [8]: 20.2 µM (inactive)
- GI50 [9]: 21.6 µM (inactive)
- GI50 [10]: 28.8 µM (inactive)
- GI50 [11]: 27.5 µM (inactive)
- GI50 [12]: 18.7 µM (inactive)
- GI50 [13]: 18.5 µM (inactive)
- GI50 [14]: 22.2 µM (inactive)
- GI50 [15]: 18.8 µM (inactive)
- GI50 [16]: 21.1 µM (inactive)
- GI50 [17]: 30.5 µM (inactive)
- GI50 [18]: 20.5 µM (inactive)

SMILES: O=c1[nH]c(=O)n(C2CC(O)C(COP(=O)(O)OC3CC(n4cc(F)c(=O)[nH]c4=O)OC3COP(=O)(O)OC3CC(n4cc(F)c(=O)[nH]c4=O)OC3COP(=O)(O)OC3CC(n4cc(F)c(=O)[nH]c4=O)OC3COP(=O)(O)OC3CC(n4cc(F)c(=O)[nH]c4=O)OC3COP(=O)(O)OC3CC(n4cc(F)c(=O)[nH]c4=O)OC3COP(=O)(O)OC3CC(n4cc(F)c(=O)[nH]c4=O)OC3COP(=O)(O)OC3CC(n4cc(F)c(=O)[nH]c4=O)OC3COP(=O)(O)OC3CC(n4cc(F)c(=O)[nH]c4=O)OC3COP(=O)(O)OC3CC(n4cc(F)c(=O)[nH]c4=O)OC3CO)O2)cc1F (stereo not given)
- GI50 [1]: 0.661 µM (active)
- GI50 [2]: 0.00824 µM (active)
- GI50 [3]: < 0.005 µM (active)
- GI50 [4]: < 0.005 µM (active)
- GI50 [5]: 0.286 µM (active)
- GI50 [7]: < 0.005 µM (active)
- GI50 [8]: < 0.005 µM (active)
- GI50 [19]: 3.07 µM (inactive)
- GI50 [9]: 0.0052 µM (active)
- GI50 [10]: 0.0109 µM (active)
- GI50 [11]: 0.169 µM (active)
- GI50 [12]: 0.353 µM (active)
- GI50 [13]: < 0.005 µM (active)
- GI50 [14]: 3.59 µM (inactive)
- GI50 [15]: 0.0202 µM (active)
- GI50 [16]: 0.194 µM (active)
- GI50 [17]: 0.0473 µM (active)
- GI50 [18]: < 0.005 µM (active)

SMILES: COC1=Nc2ccccc2S(=O)(=O)C=C1
- GI50 [1]: 10.1 µM (inactive)
- GI50 [2]: 11.4 µM (inactive)
- GI50 [3]: 13.1 µM (inactive)
- GI50 [4]: 16.8 µM (inactive)
- GI50 [5]: 7.01 µM (inactive)
- GI50 [6]: 7.69 µM (inactive)
- GI50 [7]: 3.29 µM (inactive)
- GI50 [8]: 20.8 µM (inactive)
- GI50 [19]: 16.6 µM (inactive)
- GI50 [10]: 1.74 µM (inactive)
- GI50 [11]: 24.7 µM (inactive)
- GI50 [12]: 2.31 µM (inactive)
- GI50 [13]: 17.9 µM (inactive)
- GI50 [14]: 14.8 µM (inactive)
- GI50 [15]: 4.81 µM (inactive)
- GI50 [16]: > 87.3 µM (inactive)
- GI50 [17]: 3.66 µM (inactive)
- GI50 [18]: 13.3 µM (inactive)

SMILES: CCCCCCCCCc1cc(=O)c2c(O)cc(O)cc2o1
- GI50 [1]: 24.3 µM (inactive)
- GI50 [2]: 19.8 µM (inactive)
- GI50 [3]: 17.6 µM (inactive)
- GI50 [4]: 20.2 µM (inactive)
- GI50 [5]: 19.2 µM (inactive)
- GI50 [6]: 18.7 µM (inactive)
- GI50 [7]: 21.6 µM (inactive)
- GI50 [8]: 3.82 µM (inactive)
- GI50 [19]: 18.9 µM (inactive)
- GI50 [9]: 4.91 µM (inactive)
- GI50 [10]: 21.7 µM (inactive)
- GI50 [11]: 18.9 µM (inactive)
- GI50 [12]: 18.1 µM (inactive)
- GI50 [14]: 6.67 µM (inactive)
- GI50 [15]: 16.3 µM (inactive)
- GI50 [16]: 17.8 µM (inactive)
- GI50 [17]: 22.2 µM (inactive)
- GI50 [18]: > 100 µM (inactive)

SMILES: COC(=O)c1c(O)ccc2c1c1c(n2Cc2ccc(OC)cc2)C(=O)c2ccccc2C1=O
- GI50 [1]: 12.3 µM (inactive)
- GI50 [3]: 7.21 µM (inactive)
- GI50 [4]: 18.2 µM (inactive)
- GI50 [5]: 17.9 µM (inactive)
- GI50 [6]: 35.3 µM (inactive)
- GI50 [7]: 12 µM (inactive)
- GI50 [8]: 12.4 µM (inactive)
- GI50 [19]: 11.3 µM (inactive)
- GI50 [9]: 0.139 µM (active)
- GI50 [10]: 6.3 µM (inactive)
- GI50 [11]: 22.5 µM (inactive)
- GI50 [12]: 15.1 µM (inactive)
- GI50 [14]: 15.6 µM (inactive)
- GI50 [15]: 10.5 µM (inactive)
- GI50 [16]: 10.4 µM (inactive)
- GI50 [17]: 6.78 µM (inactive)
- GI50 [18]: 29.4 µM (inactive)

SMILES: O=C1C=C(N2CCN(CCOCCO)CC2)C(=O)c2c(O)ccc(O)c21
- GI50 [1]: 3.76 µM (inactive)
- GI50 [2]: 1.72 µM (inactive)
- GI50 [3]: 2.94 µM (inactive)
- GI50 [4]: 3.42 µM (inactive)
- GI50 [5]: 17.1 µM (inactive)
- GI50 [6]: 19.6 µM (inactive)
- GI50 [7]: 8.55 µM (inactive)
- GI50 [8]: 17.3 µM (inactive)
- GI50 [19]: 6.97 µM (inactive)
- GI50 [10]: 2.02 µM (inactive)
- GI50 [11]: 18.4 µM (inactive)
- GI50 [12]: 16.6 µM (inactive)
- GI50 [13]: 1.82 µM (inactive)
- GI50 [14]: 12 µM (inactive)
- GI50 [15]: 7.89 µM (inactive)
- GI50 [16]: 16.9 µM (inactive)
- GI50 [17]: 5.65 µM (inactive)
- GI50 [18]: 15.7 µM (inactive)

SMILES: COc1cc(C(=O)Oc2c(C(C)=O)sc3c2c(=O)n(-c2ccccc2)c(=S)n3-c2ccccc2)cc(OC)c1OC
- GI50 [1]: 24.5 µM (inactive)
- GI50 [2]: 17.4 µM (inactive)
- GI50 [3]: 15.4 µM (inactive)
- GI50 [4]: 26.4 µM (inactive)
- GI50 [5]: 19.2 µM (inactive)
- GI50 [6]: 18.7 µM (inactive)
- GI50 [7]: 19.6 µM (inactive)
- GI50 [8]: 24.5 µM (inactive)
- GI50 [9]: 25 µM (inactive)
- GI50 [10]: 18.1 µM (inactive)
- GI50 [11]: 24.7 µM (inactive)
- GI50 [12]: 19.8 µM (inactive)
- GI50 [13]: 23.9 µM (inactive)
- GI50 [14]: 22.8 µM (inactive)
- GI50 [15]: 19.3 µM (inactive)
- GI50 [16]: 3.86 µM (inactive)
- GI50 [17]: 26.5 µM (inactive)
- GI50 [18]: 33.9 µM (inactive)
